The record followed here is patent publication US20170269061A1, “METHOD FOR ASSESSING SENSITIVITY OF A TARGET DRUG IN VITRO AND A BIOMARKER USED THEREOF” (Tunghai University, priority 2016, published 2017).

Data set [1] relates to MDA-MB-231, SKBR-3 and BT-474 cells. The data set is described as follows: Phase contrast observation of treated cells (Cell Experiment II). The note with it: 1 μg/ml paclitaxel, 72 hour; compared with 10 μg/ml trastuzumab and 1 μg/ml T-DM1. Format: cell-based.
Data set [2] concerns SKBR-3 cells. The note with it: SKBR-3 with caveolin-1 siRNA; T-DM1 72 hours; p<0.05. The method, then:
BT-474 cells were grown on plates in normal growth medium without antibiotics, and Lipofectamine 2000 transfection reagent (Invitrogen, ThermoFisher, Waltham, Mass., USA) was used to induce GFP-tagged caveolin-1 (Addgene, Cambridge, Mass., USA) overexpression. Caveolin-1siRNA (Dharmacon, GE health care, Lafayette, Colo., USA) was used in the knockdown experiment in SKBR-3 cells.

Data set [3] deals with SKBR-3 cells. How it is done: Pro-survival protein Bcl-2 expression in each of the cells, culturing under different condition in example 7 at 48 hours, were determined by Western blot.
Using an annexin V detection kit (Invitrogen, ThermoFisher, Waltham, Mass., USA) to label cell surface phosphatidylserine of apoptotic cells and analysis these stained cells by flow cytometry. […] Co-staining images were taken by inverted fluorescence microscope shown in FIG. 15, wherein green color indicates annexin V positive apoptotic cell, red color indicates PI positive necrotic cell. Annexin V stained cells with PI positive staining were excluded as necrotic cells, apoptotic cells with only annexin V staining were counted and divided by total cells as the percentage of apoptosis. […] And, annexin V positive/PI negative apoptosis in FIG. 15 was quantified.

For data set [4], the system named is SKBR-3 cells. The data set is described as follows: Immunofluorescence microscopy of drug localization (Cell Experiment I). The class given is cell-based. The note with it: T-DM1 1 μg/ml or trastuzumab 10 μg/ml for 30 min, co-staining with caveolin-1. How it is done:
(§1) After washing, each of the cells was fixed with 3.7% formaldehyde and permeabilized with 0.1% Triton-X 100. The fixed cells were incubated with rabbit anti-caveolin-1 antibody (1:100 dilution in PBS/0.1% Triton-100/3% BSA) at room temperature for 1 hour and then incubated with Cy3-conjugated anti-rabbit secondary antibodies (1:200 dilution in PBS/0.1% Triton-100/3% BSA) at room temperature for 1 hour.

The next data set concerns BT-474 cells. The data set is described as above. The class given is cell-based. Conditions: T-DM1 1 μg/ml or trastuzumab 10 μg/ml for 30 min. The method, then: as §1
Data set [5] concerns SKBR-3 cells. Conditions: 1 μg/ml T-DM1 vs 10 μg/ml trastuzumab, 72 hour, p<0.01.
Experimental: After culturing each of the cells under different condition in example 7, 0.1 ml of 0.4% trypan blue and deionized water (1:1) was added. Dead cells were stained blue, while live cells remained unstained. Therefore, the number of dead cells could be estimated and cell viability estimated with a hemocytometer. Wherein, the cell mortality was expressed as the percentage of trypan blue-positive cells compared to the total number of cells and the viability percentage was presented by the number of live cells divided by the number of untreated control cells×100.

Consider `CC(=O)O[C@H]1C(=O)[C@@]2(C)[C@H]([C@H](OC(=O)c3ccccc3)[C@]3(O)C[C@H](OC(=O)[C@H](O)[C@@H](NC(=O)c4ccccc4)c4ccccc4)C(C)=C1C3(C)C)[C@]1(OC(C)=O)CO[C@@H]1C[C@@H]2O` [paclitaxel], for which the “cytotoxicity (phase contrast)” value in data set [1] is “most cytotoxicity”.

On to trastuzumab emtansine [T-DM1], for which, in the data set on SKBR-3 cells [2], the “T-DM1 efficacy on CAV-1 knockdown” value is reported as “significantly reduced T-DM1 efficacy”. In addition, in the data set with SKBR-3 cells [3] (1 μg/ml T-DM1, 48 hours, Western blot), the Bcl-2 expression level result was “lower level of Bcl-2”. Moreover, in the data set on SKBR-3 cells [3] (1 μg/ml T-DM1 plus Z-VAD-FMK), the “drug sensitivity (cell viability) with pan-caspase inhibitor Z-VAD-FMK” value is reported as “decreased”. For the same molecule, in the data set on SKBR-3 cells [3] (T-DM1 treated), the “necrotic cells (PI staining)” value is reported as “fewer necrotic cells” and the “percentage of apoptosis (annexin V)” value was “increased percentage of apoptosis”. Moreover, the “localization of drug in cells” value in the data set on SKBR-3 cells [4] was “colocalized in the SKBR-3 cell membrane and cytosol”. Moreover, the “localization of drug in cells” value in the data set with BT-474 cells was “localized only in the cell membrane”. Besides, the “cell sensitivity (cell viability) versus trastuzumab” value with SKBR-3 cells [5] is given as “significantly more sensitive”.
